Among the data in PubChem BioAssay (NCI) are TGI values, retold here.

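Test compounds were applied to cells in 96-well plates for 48 hours at 5 doses. TGI denotes the concentration required for complete inhibition of growth.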

Among the test systems are NCI/ADR-RES ovarian; NCI-H23 lung; ACHN renal; IGROV1 ovarian; MDA-MB-435; A549 NSCLC; MALME-3M melanoma; OVCAR-8 ovarian; TK-10 renal; SF-539 CNS; 786-0 renal; OVCAR-3 ovarian; NCI-H522 lung; SW-620 colon; UO-31 renal; LOX IMVI melanoma; HS 578T breast; DU-145 prostate; NCI-H226 lung.
Assay in all cases: NCI anticancer screen, dose series, 48 h

Turning to `COc1cc(CSc2ccc(O)cc2)cc(O)c1O`, the TGI was 71.3 µM with NCI/ADR-RES ovarian; greater than 100 µM in the test on NCI-H23 lung; greater than 100 µM in the test on ACHN renal; greater than 100 µM in the test on IGROV1 ovarian; 94.6 µM with MDA-MB-435; greater than 100 µM in the test with A549 NSCLC. The TGI in the test on MALME-3M melanoma was greater than 100 µM; in the test with OVCAR-8 ovarian it was 58.2 µM; in the test on TK-10 renal, greater than 100 µM; in the test with SF-539 CNS, 85.9 µM; in the test on 786-0 renal it was greater than 100 µM; with OVCAR-3 ovarian, 67.6 µM. The TGI with NCI-H522 lung was 38.3 µM; in the test on SW-620 colon it was greater than 100 µM; in the test with UO-31 renal it was greater than 100 µM; in the test on LOX IMVI melanoma, greater than 100 µM; in the test with HS 578T breast it was greater than 100 µM; with DU-145 prostate, greater than 100 µM. In the test on NCI-H226 lung, the TGI stood at 65.5 µM.
Take `O=C1CC(CC(O)C(O)CO)CC(=O)N1` (configuration not stated): the TGI in the test on NCI/ADR-RES ovarian, with NCI-H23 lung, with ACHN renal, in the test with IGROV1 ovarian, with MDA-MB-435 and in the test with A549 NSCLC was greater than 100 µM in each case. Besides, the TGI with MALME-3M melanoma, with OVCAR-8 ovarian, in the test on TK-10 renal, with SF-539 CNS, with 786-0 renal and with OVCAR-3 ovarian was greater than 100 µM in each case. The TGI in the test with NCI-H522 lung, in the test with SW-620 colon, in the test with UO-31 renal, in the test on LOX IMVI melanoma, in the test on HS 578T breast and in the test on DU-145 prostate was greater than 100 µM in each case. In the test with NCI-H226 lung, this compound showed a TGI greater than 100 µM.
Turning to `COc1ccc(C(=O)N=C2N(c3ccccc3)C(=Nc3ccccc3)C(=Nc3ccccc3)N2c2ccccc2)cc1`, the TGI in the test with NCI/ADR-RES ovarian, with NCI-H23 lung, in the test with ACHN renal, in the test with IGROV1 ovarian, in the test on MDA-MB-435 and in the test on A549 NSCLC was greater than 100 µM throughout. Moreover, the TGI was greater than 58.3 µM in the test with MALME-3M melanoma; greater than 100 µM in the test with OVCAR-8 ovarian; greater than 61.2 µM in the test with TK-10 renal; greater than 100 µM in the test with SF-539 CNS; 59.5 µM with 786-0 renal; greater than 100 µM in the test with OVCAR-3 ovarian. Besides, the TGI was greater than 100 µM with NCI-H522 lung; greater than 100 µM in the test on SW-620 colon; greater than 100 µM in the test on UO-31 renal; greater than 100 µM with LOX IMVI melanoma; 96.5 µM in the test on HS 578T breast; greater than 100 µM in the test with DU-145 prostate. Moreover, in the test on NCI-H226 lung, the TGI is greater than 100 µM.
Turning to `COc1ccc(OC)c2c1C(=O)C(Cl)=C(Cl)C2=O`, the TGI in the test with NCI/ADR-RES ovarian came out at 5.74 µM; with NCI-H23 lung, 19.2 µM; in the test on ACHN renal, 10.9 µM; in the test with IGROV1 ovarian, 31.1 µM; with MDA-MB-435, 5.88 µM; in the test on A549 NSCLC, 56.4 µM. Also, the TGI with MALME-3M melanoma came out at 4.46 µM; in the test with OVCAR-8 ovarian it was 18.3 µM; in the test on TK-10 renal it was 9.83 µM; with SF-539 CNS it was 11.6 µM; in the test with 786-0 renal it was 10.5 µM; in the test on OVCAR-3 ovarian it was 7.85 µM. The TGI in the test with NCI-H522 lung was found to be 4.68 µM; in the test with SW-620 colon, 3.6 µM; with UO-31 renal it was 6.66 µM; with LOX IMVI melanoma, 5.18 µM; with HS 578T breast, 6.06 µM; in the test on DU-145 prostate, 37.6 µM. In the test with NCI-H226 lung, the TGI is 42.2 µM.
Turning to `COC(=O)c1c(C)cccc1C1CN=NC12Cc1c(C)cccc1C2=O` (configuration not stated), the TGI with NCI/ADR-RES ovarian, in the test with NCI-H23 lung, in the test on ACHN renal, with IGROV1 ovarian, with MDA-MB-435 and in the test with A549 NSCLC was greater than 100 µM throughout. Further, the TGI with MALME-3M melanoma, in the test with OVCAR-8 ovarian, in the test with TK-10 renal, in the test with SF-539 CNS, with 786-0 renal and with OVCAR-3 ovarian was greater than 100 µM each time. Also, the TGI with NCI-H522 lung was 91.7 µM; with SW-620 colon it was greater than 100 µM; in the test on UO-31 renal it was greater than 100 µM; in the test with LOX IMVI melanoma it was greater than 100 µM; in the test on HS 578T breast it was greater than 100 µM; with DU-145 prostate, greater than 100 µM. Moreover, the TGI in the test on NCI-H226 lung was greater than 100 µM.
For `COc1ccc(-c2c(N)n(-c3cc(OC)cc(OC)c3)c(=O)c3cc([N+](=O)[O-])ccc23)cc1`, the TGI in the test on NCI/ADR-RES ovarian, with NCI-H23 lung, with ACHN renal, in the test with IGROV1 ovarian, with MDA-MB-435 and in the test on A549 NSCLC was greater than 100 µM throughout. For the same compound, the TGI in the test on MALME-3M melanoma, with OVCAR-8 ovarian, with TK-10 renal, with SF-539 CNS, in the test with 786-0 renal and in the test on OVCAR-3 ovarian was greater than 100 µM throughout. Moreover, the TGI in the test on NCI-H522 lung, in the test on SW-620 colon, with UO-31 renal, in the test on LOX IMVI melanoma, in the test on HS 578T breast and with DU-145 prostate was greater than 100 µM each time. For the same compound, the TGI with NCI-H226 lung is greater than 100 µM.
Regarding `O=c1[nH]ncc2[nH]c3c(c12)CCCc1ccccc1-3`, the TGI was greater than 100 µM in the test with NCI/ADR-RES ovarian; greater than 100 µM in the test on NCI-H23 lung; greater than 100 µM with ACHN renal; greater than 100 µM with IGROV1 ovarian; 82.9 µM in the test with MDA-MB-435; greater than 100 µM in the test on A549 NSCLC. Further, the TGI with MALME-3M melanoma, with OVCAR-8 ovarian, with TK-10 renal, with SF-539 CNS, in the test with 786-0 renal and in the test on OVCAR-3 ovarian was greater than 100 µM each time. In addition, the TGI in the test on NCI-H522 lung is greater than 100 µM; in the test with SW-620 colon, greater than 100 µM; with UO-31 renal it was greater than 100 µM; in the test on LOX IMVI melanoma, greater than 100 µM; in the test with HS 578T breast, 45.8 µM; in the test on DU-145 prostate it was greater than 100 µM. Further, the TGI with NCI-H226 lung was greater than 100 µM.
For `COc1cc(C(CN)N(C)C)cc(OC)c1OC` (configuration not stated), the TGI in the test on NCI/ADR-RES ovarian, in the test with NCI-H23 lung, with ACHN renal, in the test on IGROV1 ovarian, with MDA-MB-435 and with A549 NSCLC was greater than 100 µM throughout. Moreover, the TGI in the test on MALME-3M melanoma, in the test on OVCAR-8 ovarian, with TK-10 renal, in the test on SF-539 CNS, in the test with 786-0 renal and with OVCAR-3 ovarian was greater than 100 µM in each case. For the same compound, the TGI in the test on NCI-H522 lung, in the test on SW-620 colon, in the test on UO-31 renal, with LOX IMVI melanoma, in the test with HS 578T breast and in the test on DU-145 prostate was greater than 100 µM each time. In the test on NCI-H226 lung, this compound yielded a TGI of 71.6 µM.
